Laboratory results published in ChEMBL document CHEMBL1201862, “PubChem BioAssay data set” (2004).
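Results reflect a 48-hour exposure of cells in 96-well plates to compound at five concentrations. GI50: concentration for 50% inhibition of growth.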 Active and inactive are the calls of the source. Rule as the data show it: active = GI50 up to about 1.1 µM and inactive = higher.

Experiments:
Assay in all cases: inhibition of tumour cell growth, NCI panel, 48 h
NCI-H226 = tested on: NCI-H226
RPMI-8226 = tested on: RPMI-8226
OVCAR-8 = tested on: OVCAR-8
HCT-116 = tested on: HCT-116
IGROV-1 = tested on: IGROV-1
TK-10 = tested on: TK-10
OVCAR-4 = tested on: OVCAR-4
CCRF-CEM = tested on: CCRF-CEM
Hs-578T = tested on: Hs-578T
HOP-62 = tested on: HOP-62
EKVX = tested on: EKVX
PC-3 = tested on: PC-3
OVCAR-5 = tested on: OVCAR-5
SR = tested on: SR
HT-29 = tested on: HT-29
A549 = tested on: A549
MDA-MB-435 = tested on: MDA-MB-435
MCF7 = tested on: MCF7
A498 = tested on: A498
SNB-19 = tested on: SNB-19

| Structure (SMILES) | GI50 (NCI-H226) | GI50 (RPMI-8226) | GI50 (OVCAR-8) | GI50 (HCT-116) | GI50 (IGROV-1) | GI50 (TK-10) | GI50 (OVCAR-4) | GI50 (CCRF-CEM) | GI50 (Hs-578T) | GI50 (HOP-62) | GI50 (EKVX) | GI50 (PC-3) | GI50 (OVCAR-5) | GI50 (SR) | GI50 (HT-29) | GI50 (A549) | GI50 (MDA-MB-435) | GI50 (MCF7) | GI50 (A498) | GI50 (SNB-19) |
| --- | --- | --- | --- | --- | --- | --- | --- | --- | --- | --- | --- | --- | --- | --- | --- | --- | --- | --- | --- | --- |
| CC[C@@H](/C=C\CCC(=O)C[C@H](O)CCC=C(C)C)O[Si](C(C)C)(C(C)C)C(C)C | > 100 µM (inactive) | 57.3 µM (inactive) | > 100 µM (inactive) | > 100 µM (inactive) | > 100 µM (inactive) | > 100 µM (inactive) | > 100 µM (inactive) | 80.4 µM (inactive) | > 100 µM (inactive) | > 100 µM (inactive) | > 100 µM (inactive) | 75.5 µM (inactive) | > 100 µM (inactive) | 39.4 µM (inactive) | 52.6 µM (inactive) | 73.3 µM (inactive) | > 100 µM (inactive) | 79.4 µM (inactive) | > 100 µM (inactive) | > 100 µM (inactive) |
| Cc1ccc(OCC2OC(n3cnc4c(Cl)nc(N)nc43)CC2Oc2ccc(C)cc2)cc1 (stereo not given) | > 43.5 µM (inactive) | 33 µM (inactive) | 31.9 µM (inactive) | 47.5 µM (inactive) | 19.4 µM (inactive) | 58.6 µM (inactive) | 21.4 µM (inactive) | > 74.6 µM (inactive) | 39.4 µM (inactive) | > 36.1 µM (inactive) | 9.2 µM (inactive) | 35.4 µM (inactive) | 34.3 µM (inactive) | 36 µM (inactive) | 46.1 µM (inactive) | 6.73 µM (inactive) | > 57.1 µM (inactive) | 2.75 µM (inactive) | > 75 µM (inactive) | 38 µM (inactive) |
| Cc1cc(=O)oc2cc(OS(C)(=O)=O)ccc12 | > 100 µM (inactive) | > 100 µM (inactive) | > 100 µM (inactive) | > 100 µM (inactive) | > 100 µM (inactive) | > 100 µM (inactive) | > 100 µM (inactive) | > 100 µM (inactive) | > 100 µM (inactive) | > 100 µM (inactive) | > 100 µM (inactive) | > 100 µM (inactive) | > 100 µM (inactive) | > 100 µM (inactive) | > 100 µM (inactive) | > 100 µM (inactive) | > 100 µM (inactive) | > 100 µM (inactive) | > 100 µM (inactive) | > 100 µM (inactive) |
| c1ccc(COC2NCCN2Cc2ccccc2)cc1 (stereo not given) | > 100 µM (inactive) | > 100 µM (inactive) | > 100 µM (inactive) | > 100 µM (inactive) | > 100 µM (inactive) | > 100 µM (inactive) | > 100 µM (inactive) | > 100 µM (inactive) | 5.64 µM (inactive) | > 100 µM (inactive) | 51.2 µM (inactive) | > 100 µM (inactive) | > 100 µM (inactive) | > 100 µM (inactive) | > 100 µM (inactive) | > 100 µM (inactive) | > 100 µM (inactive) | > 100 µM (inactive) | 41.7 µM (inactive) | > 100 µM (inactive) |
| CC(=N\N=C\c1ccccn1)/C(C)=N/N=C/c1ccccn1 | > 100 µM (inactive) | > 100 µM (inactive) | > 100 µM (inactive) | > 100 µM (inactive) | > 100 µM (inactive) | > 100 µM (inactive) | 94.4 µM (inactive) | > 100 µM (inactive) | > 100 µM (inactive) | > 100 µM (inactive) | > 100 µM (inactive) | > 100 µM (inactive) | > 100 µM (inactive) | 88.5 µM (inactive) | > 100 µM (inactive) | > 100 µM (inactive) | 42.9 µM (inactive) | 89.7 µM (inactive) | > 100 µM (inactive) | > 100 µM (inactive) |
| CN(CC(=O)O)c1ncc2c(n1)CCCC2 | > 100 µM (inactive) | > 100 µM (inactive) | > 100 µM (inactive) | > 100 µM (inactive) | > 100 µM (inactive) | > 100 µM (inactive) | > 100 µM (inactive) | > 100 µM (inactive) | > 100 µM (inactive) | > 100 µM (inactive) | > 100 µM (inactive) | > 100 µM (inactive) | > 100 µM (inactive) | > 100 µM (inactive) | > 100 µM (inactive) | > 100 µM (inactive) | > 100 µM (inactive) | > 100 µM (inactive) | > 100 µM (inactive) | > 100 µM (inactive) |
| CN1C/C(=C\c2cccs2)C2=NN(c3ccccc3)C(c3cccs3)C2C1 (stereo not given) | > 100 µM (inactive) | 3.59 µM (inactive) | 10.5 µM (inactive) | 2.7 µM (inactive) | 4.06 µM (inactive) | 31.6 µM (inactive) | 4.47 µM (inactive) | 2 µM (inactive) | > 100 µM (inactive) | 11.1 µM (inactive) | 14.7 µM (inactive) | 10.7 µM (inactive) | > 100 µM (inactive) | 1.71 µM (inactive) | 3.14 µM (inactive) | 7.33 µM (inactive) | 1.61 µM (inactive) | 13.3 µM (inactive) | > 27.3 µM (inactive) | 5.93 µM (inactive) |
| CN1C=Cc2nccc3cc4c(c1c23)OCO4 | 2.83 µM (inactive) | 1.04 µM (active) | 5.68 µM (inactive) | 1.5 µM (inactive) | > 20.7 µM (inactive) | 3.64 µM (inactive) | 5.22 µM (inactive) | 1.39 µM (inactive) | 13.5 µM (inactive) | 1.82 µM (inactive) | 1.85 µM (inactive) | 3.21 µM (inactive) | 6.61 µM (inactive) | 0.495 µM (active) | 2 µM (inactive) | 2.81 µM (inactive) | 3.25 µM (inactive) | 3.03 µM (inactive) | 4 µM (inactive) | 1.87 µM (inactive) |
| CC(NC(=O)C1(N)CCCC1)C(=O)O (stereo not given) | > 100 µM (inactive) | > 100 µM (inactive) | > 100 µM (inactive) | > 100 µM (inactive) | > 100 µM (inactive) | > 100 µM (inactive) | > 100 µM (inactive) | > 100 µM (inactive) | > 100 µM (inactive) | > 100 µM (inactive) | > 100 µM (inactive) | > 100 µM (inactive) | > 100 µM (inactive) | > 100 µM (inactive) | > 100 µM (inactive) | > 100 µM (inactive) | > 100 µM (inactive) | > 100 µM (inactive) | > 100 µM (inactive) | > 100 µM (inactive) |
| COc1cc(Cl)c(CC(=O)c2c[nH]c3ccccc23)cc1OC | 12.6 µM (inactive) | > 100 µM (inactive) | 8.55 µM (inactive) | 98.6 µM (inactive) | 32.4 µM (inactive) | 16.9 µM (inactive) | > 100 µM (inactive) | > 34.6 µM (inactive) | 23.6 µM (inactive) | 5.3 µM (inactive) | 18.7 µM (inactive) | > 100 µM (inactive) | > 100 µM (inactive) | > 100 µM (inactive) | > 100 µM (inactive) | > 100 µM (inactive) | > 100 µM (inactive) | > 100 µM (inactive) | 12.1 µM (inactive) | 13.4 µM (inactive) |
